Read-outs that look alike come from different tables or passages of the source. Ends that are not written are not given here.
Experiment: Clinical test in humans, single 30-min i.v. infusion, plasma PK
Type: in vivo
Settings: human; for AUC(0-inf) / Cmax / Vd / clearance / AUC(0-t) / half-life / Tmax: in vivo, iv
Description: A total of 8 healthy subjects were included in each group. Group 1 received 25 μg/kg of Peptide 1, Group 2 received 50 μg/kg of Peptide 1, Group 3 received 100 μg/kg of Peptide 1, Group 4 received 150 μg/kg of Peptide 1, Group 5 received 200 μg/kg of Peptide 1 and Group 7 received 400 μg/kg of Peptide 1.
The tested liquid pharmaceutical composition has a pH of 8.2-8.4, and comprises the following: • i) 5 mg/ml of Peptide 1, • ii) 4% (w/w) mannitol, • iii) 1% (w/w) sucrose, • iv) 0.01% (w/w) Polysorbate-80, • v) 10 mM glycyl-glycine, and • vi) sterile water for injection.
In these groups, 6 subjects received the active treatment (i.e. a single Peptide 1 30-min intravenous (i.v.) infusion corresponding to the above doses) and 2 received the placebo. In order to prevent any anticipated unblinding, the subjects under active treatment were recorded by the bioanalytical laboratory.
Blood samples were collected for PK purpose for Peptide 1 determinations on Day 1 at the following time points: pre-dose, then, 10 min, 20 min, 30 min (30 min=0.5), 0.75, 1.0, 1.5, 2.0, 2.5, 3.0, 4.0, 6.0, 8.0, 12.0, 16.0 and 24.0 h after the infusion start.
Venous whole blood samples were collected from all subjects.
Plasma samples were analyzed for Peptide 1 using validated Liquid chromatography—Tandem Mass spectrometry (LC-MS/MS) methods by Charles River Laboratories (CRL).
Derivation of PK parameters were carried out by PhinC Development using Phoenix WinNonlin® (Version Phoenix 8.1—Certara—Princeton—USA). A non-compartmental analysis (NCA) approach was chosen.
For the calculation of the PK parameters and characteristics the following rules were applied: • All the plasma concentrations validated by the bioanalytical laboratory and provided to the pharmacokineticist were used for the PK analysis. • The theoretical PK blood sampling time points were used. • At time points in the lag-time between time zero and the first concentration equal or above limit of quantification (LOQ), concentrations below the LOQ (BLQ) were set to zero (0). • Concentrations BLQ between 2 concentrations equal or above LOQ were considered as missing. • Trailing concentrations (at time point between time of last measurable concentrations and time of last blood sample) BLQ were not used in calculations. • For concentration above the upper limit of quantification and reported as above limit of quantification (ALQ) in the final plasma concentration tables, ALQ was considered as missing for the PK analysis. • Not reported (NR) concentration was excluded from the PK analysis. • For the first administration, if pre-dose concentration was less than or equal to 5% of Cmax value in a PK profile, the subject's data was included in all PK measurements and calculations without any adjustments. If the pre-dose value was greater than 5% of Cmax, the subject was dropped from all statistical evaluations.
The following PK parameters of Peptide 1, were derived for each subject receiving the active treatment on Day 1: • Cmax: The observed maximum concentration in plasma measured in a subject after dosing identified by inspection of the plasma drug concentration versus (vs.) time data by WinNonlin®. • tmax: The time at which Cmax was apparent, identified by inspection of the plasma drug concentration vs. time data by Phoenix WinNonlin®. • AUC0-24: The area under the concentration-time curve from time zero (pre-dose) to 24 h was calculated using a linear trapezoidal method. AUC0-24 was only calculated if there were at least 3 concentrations above LOQ. • AUC0-t: The area under the concentration-time curve from time zero (pre-dose) to the time of last quantifiable concentration was calculated using a linear trapezoidal method. The AUC was only calculated if there were at least 3 concentrations above LOQ. • ke: The terminal plasma elimination rate-constant was estimated from log-linear regression analysis of the terminal phase of the plasma concentration-time profile. […]

[1] = 25 ug/kg, single 30-min i.v. infusion 25 μg/kg, GM
[2] = 50 ug/kg, single 30-min i.v. infusion 50 μg/kg, mean
[3] = 100 ug/kg, single 30-min i.v. infusion 100 μg/kg, mean
[4] = 150 ug/kg, single 30-min i.v. infusion 150 μg/kg, GM
[5] = 150 ug/kg, single 30-min i.v. infusion 150 μg/kg, mean
[6] = 200 ug/kg, single 30-min i.v. infusion 200 μg/kg, GM
[7] = 400 ug/kg, single 30-min i.v. infusion 400 μg/kg, mean
[8] = single 30-min i.v. infusion 25 μg/kg, mean
[9] = single 30-min i.v. infusion 50 μg/kg, GM
[10] = single 30-min i.v. infusion 100 μg/kg, GM
[11] = single 30-min i.v. infusion 200 μg/kg, mean
[12] = single 30-min i.v. infusion 400 μg/kg, GM
[13] = single 30-min i.v. infusion 400 μg/kg, mean

With “AMVSEFLKQAWFIENEEQEYVQTLKSSKGGPGSAVSPYPTFNPSSDV-NH2 [Peptide 1]” the “increase of exposure parameters (Cmax and AUCs)” value (“increase of exposure parameters” below) (between 100 μg/kg and 400 μg/kg (dose increased by 4-fold)) was “about 4.3 fold”, the “increase of exposure parameters” value (between 150 μg/kg and 400 μg/kg (dose increased by 2.7-fold)) was “around 3.2 fold” and the “increase of exposure parameters” value (between 200 μg/kg and 400 μg/kg (dose increased by 2 fold)) was “around 2 fold”. The AUC(0-inf) [1] was 211 ng·h/mL, the Cmax [1] was 161 ng/mL and the Vd [1] was 0.13 L/kg. For the same substance, the clearance [1] was 2 mL/min/kg, the AUC(0-t) (25 ug/kg, single 30-min i.v. infusion 25 μg/kg, GM, read-out: AUC0-24) was 211 ng·h/mL and the AUC(0-t) (25 ug/kg, single 30-min i.v. infusion 25 μg/kg, GM, read-out: AUC0-t) was 130 ng·h/mL. For the same substance, the half-life (25 ug/kg, single 30-min i.v. infusion 25 μg/kg, GM, read-out: t1/2 (converted)) was 47.4 min, the Vd (25 ug/kg, single 30-min i.v. infusion 25 μg/kg, mean) was 0.14 L/kg and the AUC(0-t) (25 ug/kg, single 30-min i.v. infusion 25 μg/kg, mean, read-out: AUC0-t) was 132 ng·h/mL. For the same substance, the AUC(0-inf) (50 ug/kg, single 30-min i.v. infusion 50 μg/kg, GM) was 456 ng·h/mL, the AUC(0-t) (50 ug/kg, single 30-min i.v. infusion 50 μg/kg, GM, read-out: AUC0-24) was 457 ng·h/mL and the AUC(0-t) (50 ug/kg, single 30-min i.v. infusion 50 μg/kg, GM, read-out: AUC0-t) was 369 ng·h/mL. For the same substance, the half-life (50 ug/kg, single 30-min i.v. infusion 50 μg/kg, GM, read-out: t1/2 (converted)) was 54 min, the AUC(0-inf) [2] was 464 ng·h/mL and the Cmax [2] was 375 ng/mL. For the same substance, the Vd [2] was 0.14 L/kg, the clearance [2] was 1.83 mL/min/kg and the AUC(0-t) (50 ug/kg, single 30-min i.v. infusion 50 μg/kg, mean, read-out: AUC0-24) was 464 ng·h/mL. The AUC(0-t) (50 ug/kg, single 30-min i.v. infusion 50 μg/kg, mean, read-out: AUC0-t) was 378 ng·h/mL, the half-life (50 ug/kg, single 30-min i.v. infusion 50 μg/kg, mean, read-out: t1/2 (converted)) was 55.2 min and the Cmax (100 ug/kg, single 30-min i.v. infusion 100 μg/kg, GM) was 899 ng/mL. For the same substance, the half-life (100 ug/kg, single 30-min i.v. infusion 100 μg/kg, GM, read-out: t1/2 (converted)) was 67.8 min, the AUC(0-inf) [3] was 1110 ng·h/mL and the Cmax [3] was 916 ng/mL. The Vd [3] was 0.15 L/kg, the clearance [3] was 1.5 mL/min/kg and the AUC(0-t) (100 ug/kg, single 30-min i.v. infusion 100 μg/kg, mean, read-out: AUC0-24) was 1110 ng·h/mL. For the same substance, the AUC(0-t) (100 ug/kg, single 30-min i.v. infusion 100 μg/kg, mean, read-out: AUC0-t) was 1000 ng·h/mL, the half-life (100 ug/kg, single 30-min i.v. infusion 100 μg/kg, mean, read-out: t1/2 (converted)) was 69 min and the AUC(0-inf) [4] was 1490 ng·h/mL. For the same substance, the Cmax [4] was 1250 ng/mL, the Vd [4] was 0.16 L/kg and the AUC(0-t) (150 ug/kg, single 30-min i.v. infusion 150 μg/kg, GM, read-out: AUC0-24) was 1490 ng·h/mL. For the same substance, the AUC(0-t) (150 ug/kg, single 30-min i.v. infusion 150 μg/kg, GM, read-out: AUC0-t) was 1370 ng·h/mL, the half-life (150 ug/kg, single 30-min i.v. infusion 150 μg/kg, GM, read-out: t1/2 (converted)) was 67.8 min and the AUC(0-inf) [5] was 1520 ng·h/mL. For the same substance, the Cmax [5] was 1280 ng/mL, the Vd [5] was 0.17 L/kg and the clearance [5] was 1.67 mL/min/kg. It also gave an AUC(0-t) (150 ug/kg, single 30-min i.v. infusion 150 μg/kg, mean, read-out: AUC0-24) of 1520 ng·h/mL, an AUC(0-t) (150 ug/kg, single 30-min i.v. infusion 150 μg/kg, mean, read-out: AUC0-t) of 1400 ng·h/mL and a half-life (150 ug/kg, single 30-min i.v. infusion 150 μg/kg, mean, read-out: t1/2 (converted)) of 69 min. It also gave an AUC(0-inf) [6] of 2280 ng·h/mL, a Cmax [6] of 1700 ng/mL and a Vd [6] of 0.18 L/kg. The clearance [6] was 1.5 mL/min/kg, the AUC(0-t) (200 ug/kg, single 30-min i.v. infusion 200 μg/kg, GM, read-out: AUC0-24) was 2280 ng·h/mL and the AUC(0-t) (200 ug/kg, single 30-min i.v. infusion 200 μg/kg, GM, read-out: AUC0-t) was 2120 ng·h/mL. The half-life (200 ug/kg, single 30-min i.v. infusion 200 μg/kg, GM, read-out: t1/2 (converted)) was 86.4 min, the AUC(0-inf) [7] was 4870 ng·h/mL and the Vd [7] was 0.19 L/kg. It also gave a clearance [7] of 1.33 mL/min/kg, an AUC(0-t) (400 ug/kg, single 30-min i.v. infusion 400 μg/kg, mean, read-out: AUC0-24) of 4870 ng·h/mL and an AUC(0-t) (400 ug/kg, single 30-min i.v. infusion 400 μg/kg, mean, read-out: AUC0-t) of 4720 ng·h/mL. For the same substance, the half-life (400 ug/kg, single 30-min i.v. infusion 400 μg/kg, mean, read-out: t1/2 (converted)) was 98.4 min, the AUC(0-inf) [8] was 211 ng·h/mL and the Cmax [8] was 162 ng/mL. It also gave a clearance [8] of 2 mL/min/kg, an AUC(0-t) (single 30-min i.v. infusion 25 μg/kg, mean, read-out: AUC0-24) of 211 ng·h/mL and a half-life (single 30-min i.v. infusion 25 μg/kg, mean, read-out: t1/2 (converted)) of 47.4 min. For the same substance, the Cmax [9] was 371 ng/mL, the Vd [9] was 0.14 L/kg and the clearance [9] was 1.83 mL/min/kg. For the same substance, the AUC(0-inf) [10] was 1100 ng·h/mL, the Vd [10] was 0.15 L/kg and the clearance [10] was 1.5 mL/min/kg. The AUC(0-t) (single 30-min i.v. infusion 100 μg/kg, GM, read-out: AUC0-24) was 1100 ng·h/mL, the AUC(0-t) (single 30-min i.v. infusion 100 μg/kg, GM, read-out: AUC0-t) was 991 ng·h/mL and the clearance (single 30-min i.v. infusion 150 μg/kg, GM) was 1.67 mL/min/kg. For the same substance, the AUC(0-inf) [11] was 2280 ng·h/mL, the Cmax [11] was 1700 ng/mL and the Vd [11] was 0.18 L/kg. It also gave a clearance [11] of 1.5 mL/min/kg, an AUC(0-t) (single 30-min i.v. infusion 200 μg/kg, mean, read-out: AUC0-24) of 2280 ng·h/mL and an AUC(0-t) (single 30-min i.v. infusion 200 μg/kg, mean, read-out: AUC0-t) of 2120 ng·h/mL. The half-life (single 30-min i.v. infusion 200 μg/kg, mean, read-out: t1/2 (converted)) was 87 min, the AUC(0-inf) [12] was 4840 ng·h/mL and the Cmax [12] was 3400 ng/mL. The Vd [12] was 0.19 L/kg, the clearance [12] was 1.33 mL/min/kg and the AUC(0-t) (single 30-min i.v. infusion 400 μg/kg, GM, read-out: AUC0-24) was 4840 ng·h/mL. For the same substance, the AUC(0-t) (single 30-min i.v. infusion 400 μg/kg, GM, read-out: AUC0-t) was 4690 ng·h/mL, the half-life (single 30-min i.v. infusion 400 μg/kg, GM, read-out: t1/2 (converted)) was 97.2 min and the Cmax [13] was 3420 ng/mL. For the same substance, the Vd [13] was about 0.19 L/kg, the clearance [13] was about 1.33 mL/min/kg and the half-life (single 30-min i.v. infusion, range at all dose levels, read-out: GM t1/2) was 48 to 96 min. The “time of first measurable concentrations after the start of infusion” value (single 30-min i.v. infusion, all subjects) was 0.16 h, the “time up to which concentrations were measurable in all subjects after the start of infusion” value (single 30-min i.v. infusion, highest dose) was “at least 6 hours” and the “time up to which concentrations were measurable in all subjects after start of the infusion” value (single 30-min i.v. infusion, lowest dose) was “at least 1 hour”. For the same substance, the Tmax [1] was 30 min, the Tmax (50 ug/kg, single 30-min i.v. infusion 50 μg/kg, median) was 30 min and the Tmax (100 ug/kg, single 30-min i.v. infusion 100 μg/kg, median) was 30 min. It also gave a Tmax (150 ug/kg, single 30-min i.v. infusion 150 μg/kg, median) of 30 min, a Tmax [6] of 30 min and a Tmax (400 ug/kg, single 30-min i.v. infusion 400 μg/kg, median) of 30 min. For the same substance, the Tmax (single 30-min i.v. infusion, all subjects (time of the end of infusion)) was 30 min.

Reference: patent publication US20250345392A1, “ANNEXIN A1 LIQUID PHARMACEUTICAL COMPOSITION” (ResoTher Pharma A/S, priority 2022, published 2025)
